Test results reported in publication PMC7614683, “A small molecule PI3Kα activator for cardioprotection and neuroregeneration” (Nature, 2023).
Read-outs that look alike come from different tables or passages of the source.

Tests used:
Assay in all cases: SelectScreen Z-LYTE kinase activity assay (SI Table 6)
Type in all cases: biochemical
[1] = target: protein kinases of the Z-LYTE panel (Homo sapiens, UniProt P53350)
Procedure: (§1) 133 protein kinases and 7 lipid kinases were counterscreened, with 1938 used at 1 μM, using the Adapta, Lantha and Z-LYTE assays (SelectScreen Kinase Profiling Service; Thermofisher – experimental details of these assays can be found here: https://www.thermofisher.com/uk/en/home/industrial/pharma-biopharma/drug-discovery-development/target-and-lead-identification-and-validation/kinasebiology/kinase-activity-assays.html. The tree represention in KinMap[59] generated courtesy of Cell Signaling Technology, Inc. (www.cellsignal.com). mTORC1 (mTOR/RAPTOR/LST8) protein complex and ATM kinase and substrates were produced as previously described[57],[60]. Screening of 1938 was conducted using SuperSep Phos-Tag 50 μmol/l 100 x 100 x 6.6 mm 17-well (192-18001/199-18011) gels. For ATM assays, 100 nM ATM was incubated for 30 min at 30°C with 5 μM GST-p53 and 1 mM ATP, in the absence or presence of 200 μM 1938 in ATM Kinase Buffer (50 mM HEPES pH 7.5, 100 mM NaCl, 10% glycerol, 2 mM […], 5 mM MgCl2). As a positive control for ATM activation, the same reaction was carried out with 100 nM ATM/5 μM GST-p53/1 mM ATP in the presence of 100 nM Mre11-Rad50-Nbs1 (MRN) complex, a known activator of ATM[61]. For mTORC1 assays, 50 nM mTORC1 complex (mTOR/LST8/RAPTOR) was incubated for 3 h at 30°C with 15 μM 4E-BP1, 10 mM MgCl2 and 250 μM ATP, in the absence or presence of 200 μM 1938. As a ‘positive’ control, a higher concentration (150 nM) of mTORC1 complex (mTOR/LST8/RAPTOR) was incubated for 3 h at 30°C with 15 μM 4E-BP1, 10 mM MgCl2 and 250 μM ATP. Kinase reactions were quenched by addition of SDS-PAGE Loading Buffer (as per manufacturer’s instructions) and freezing at -20°C before being run on the Phos-tag gels at 150 V for 90 min. Gels were then stained using InstantBlue™ Coomassie, and quantified using BioRad Image Lab Software. Kinase assays were carried out in triplicate.

[2] = target: protein kinases of the Z-LYTE panel (Homo sapiens, UniProt P07948)
Procedure: as §1

[3] = target: protein kinases of the Z-LYTE panel (Homo sapiens, UniProt P35968)
Procedure: as §1

[4] = target: protein kinases of the Z-LYTE panel (Homo sapiens, UniProt P17948)
Procedure: as §1

[5] = target: protein kinases of the Z-LYTE panel (Homo sapiens, UniProt P08581)
Procedure: as §1

[6] = target: T1, protein kinases of the Z-LYTE panel (Homo sapiens, UniProt Q9UQB9)
T1 sequence (Q9UQB9 1-309): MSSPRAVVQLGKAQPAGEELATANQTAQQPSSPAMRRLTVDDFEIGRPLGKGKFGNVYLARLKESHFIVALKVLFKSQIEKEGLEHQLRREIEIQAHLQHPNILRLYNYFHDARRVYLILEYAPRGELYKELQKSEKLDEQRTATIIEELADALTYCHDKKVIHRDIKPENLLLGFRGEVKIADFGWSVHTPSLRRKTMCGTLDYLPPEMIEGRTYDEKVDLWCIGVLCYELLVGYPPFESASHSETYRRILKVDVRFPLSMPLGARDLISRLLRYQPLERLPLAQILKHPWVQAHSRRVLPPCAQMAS
Procedure: as §1

[7] = target: protein kinases of the Z-LYTE panel (Homo sapiens, UniProt P07947)
Procedure: as §1

[8] = target: T2, protein kinases of the Z-LYTE panel (Homo sapiens, UniProt P43403)
T2 sequence (P43403 1-619): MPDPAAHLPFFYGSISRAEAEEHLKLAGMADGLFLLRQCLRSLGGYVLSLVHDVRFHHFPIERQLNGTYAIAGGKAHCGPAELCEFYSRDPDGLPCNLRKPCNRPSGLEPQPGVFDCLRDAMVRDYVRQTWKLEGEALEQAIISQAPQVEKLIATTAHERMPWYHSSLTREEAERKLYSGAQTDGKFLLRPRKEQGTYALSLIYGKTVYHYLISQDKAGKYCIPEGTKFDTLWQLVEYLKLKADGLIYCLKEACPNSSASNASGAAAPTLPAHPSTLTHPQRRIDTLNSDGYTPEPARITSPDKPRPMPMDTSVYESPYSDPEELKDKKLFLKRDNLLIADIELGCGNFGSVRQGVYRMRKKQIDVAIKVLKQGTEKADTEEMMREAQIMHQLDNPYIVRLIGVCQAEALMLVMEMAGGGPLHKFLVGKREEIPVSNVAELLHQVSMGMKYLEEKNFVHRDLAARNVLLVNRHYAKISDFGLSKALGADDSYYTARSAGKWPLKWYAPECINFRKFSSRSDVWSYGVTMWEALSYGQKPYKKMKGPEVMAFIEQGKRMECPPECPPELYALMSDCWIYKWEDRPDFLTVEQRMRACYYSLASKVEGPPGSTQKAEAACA
Procedure: as §1

[9] = target: protein kinases of the Z-LYTE panel (Homo sapiens, UniProt P31749)
Procedure: as §1

[10] = target: protein kinases of the Z-LYTE panel (Homo sapiens, UniProt Q04912)
Procedure: as §1

[11] = target: protein kinases of the Z-LYTE panel (Homo sapiens, UniProt P08922)
Procedure: as §1

Chain of protein kinases of the Z-LYTE panel (Homo sapiens, UniProt P31749) (P31749 whole entry): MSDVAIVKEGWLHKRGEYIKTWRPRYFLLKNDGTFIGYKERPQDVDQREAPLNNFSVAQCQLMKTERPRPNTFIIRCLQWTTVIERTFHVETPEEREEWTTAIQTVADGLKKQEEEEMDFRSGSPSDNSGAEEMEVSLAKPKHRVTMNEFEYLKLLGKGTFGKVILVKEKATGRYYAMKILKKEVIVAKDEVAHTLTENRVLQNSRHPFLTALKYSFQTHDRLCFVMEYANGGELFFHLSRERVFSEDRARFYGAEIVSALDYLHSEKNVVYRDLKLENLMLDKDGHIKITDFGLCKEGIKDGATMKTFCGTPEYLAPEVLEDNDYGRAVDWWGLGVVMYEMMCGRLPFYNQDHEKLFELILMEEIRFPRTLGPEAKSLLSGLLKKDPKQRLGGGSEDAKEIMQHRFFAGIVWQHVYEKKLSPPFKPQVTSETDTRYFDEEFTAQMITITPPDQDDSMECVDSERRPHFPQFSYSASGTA
Chain of protein kinases of the Z-LYTE panel (Homo sapiens, UniProt P35968) (P35968 20-1356): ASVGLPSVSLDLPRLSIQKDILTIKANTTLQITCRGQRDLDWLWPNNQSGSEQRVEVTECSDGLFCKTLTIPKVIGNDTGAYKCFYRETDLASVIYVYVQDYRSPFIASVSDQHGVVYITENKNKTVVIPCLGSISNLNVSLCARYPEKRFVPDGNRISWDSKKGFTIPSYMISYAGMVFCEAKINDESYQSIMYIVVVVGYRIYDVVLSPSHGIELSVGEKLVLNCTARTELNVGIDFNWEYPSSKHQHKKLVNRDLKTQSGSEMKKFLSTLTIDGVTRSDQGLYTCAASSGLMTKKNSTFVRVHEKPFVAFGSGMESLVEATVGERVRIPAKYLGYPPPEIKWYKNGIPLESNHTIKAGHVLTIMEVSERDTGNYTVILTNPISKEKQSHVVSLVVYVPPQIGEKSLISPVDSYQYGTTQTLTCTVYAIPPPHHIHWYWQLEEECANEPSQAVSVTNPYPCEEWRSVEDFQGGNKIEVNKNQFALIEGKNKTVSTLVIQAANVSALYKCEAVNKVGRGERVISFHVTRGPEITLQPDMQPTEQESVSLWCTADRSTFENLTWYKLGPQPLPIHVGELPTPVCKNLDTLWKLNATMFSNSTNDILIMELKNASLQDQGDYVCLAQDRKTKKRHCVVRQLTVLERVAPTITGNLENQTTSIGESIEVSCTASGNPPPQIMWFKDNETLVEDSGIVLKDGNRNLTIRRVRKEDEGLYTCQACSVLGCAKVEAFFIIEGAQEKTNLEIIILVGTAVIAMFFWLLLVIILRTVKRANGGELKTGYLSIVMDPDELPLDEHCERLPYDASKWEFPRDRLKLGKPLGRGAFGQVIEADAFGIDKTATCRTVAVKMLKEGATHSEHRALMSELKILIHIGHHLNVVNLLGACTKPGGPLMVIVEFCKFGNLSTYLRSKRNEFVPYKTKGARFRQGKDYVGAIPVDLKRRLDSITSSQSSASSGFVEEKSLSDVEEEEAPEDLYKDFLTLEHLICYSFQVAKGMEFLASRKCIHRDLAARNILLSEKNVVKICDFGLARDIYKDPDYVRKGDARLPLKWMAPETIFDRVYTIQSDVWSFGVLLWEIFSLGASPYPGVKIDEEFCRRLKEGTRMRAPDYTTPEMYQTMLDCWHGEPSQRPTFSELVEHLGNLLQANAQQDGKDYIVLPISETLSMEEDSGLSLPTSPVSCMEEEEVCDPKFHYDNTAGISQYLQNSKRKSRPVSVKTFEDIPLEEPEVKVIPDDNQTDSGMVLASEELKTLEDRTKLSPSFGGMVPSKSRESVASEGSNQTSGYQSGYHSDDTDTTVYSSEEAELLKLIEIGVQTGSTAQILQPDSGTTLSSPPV
Chain of protein kinases of the Z-LYTE panel (Homo sapiens, UniProt Q04912) (Q04912 25-1400): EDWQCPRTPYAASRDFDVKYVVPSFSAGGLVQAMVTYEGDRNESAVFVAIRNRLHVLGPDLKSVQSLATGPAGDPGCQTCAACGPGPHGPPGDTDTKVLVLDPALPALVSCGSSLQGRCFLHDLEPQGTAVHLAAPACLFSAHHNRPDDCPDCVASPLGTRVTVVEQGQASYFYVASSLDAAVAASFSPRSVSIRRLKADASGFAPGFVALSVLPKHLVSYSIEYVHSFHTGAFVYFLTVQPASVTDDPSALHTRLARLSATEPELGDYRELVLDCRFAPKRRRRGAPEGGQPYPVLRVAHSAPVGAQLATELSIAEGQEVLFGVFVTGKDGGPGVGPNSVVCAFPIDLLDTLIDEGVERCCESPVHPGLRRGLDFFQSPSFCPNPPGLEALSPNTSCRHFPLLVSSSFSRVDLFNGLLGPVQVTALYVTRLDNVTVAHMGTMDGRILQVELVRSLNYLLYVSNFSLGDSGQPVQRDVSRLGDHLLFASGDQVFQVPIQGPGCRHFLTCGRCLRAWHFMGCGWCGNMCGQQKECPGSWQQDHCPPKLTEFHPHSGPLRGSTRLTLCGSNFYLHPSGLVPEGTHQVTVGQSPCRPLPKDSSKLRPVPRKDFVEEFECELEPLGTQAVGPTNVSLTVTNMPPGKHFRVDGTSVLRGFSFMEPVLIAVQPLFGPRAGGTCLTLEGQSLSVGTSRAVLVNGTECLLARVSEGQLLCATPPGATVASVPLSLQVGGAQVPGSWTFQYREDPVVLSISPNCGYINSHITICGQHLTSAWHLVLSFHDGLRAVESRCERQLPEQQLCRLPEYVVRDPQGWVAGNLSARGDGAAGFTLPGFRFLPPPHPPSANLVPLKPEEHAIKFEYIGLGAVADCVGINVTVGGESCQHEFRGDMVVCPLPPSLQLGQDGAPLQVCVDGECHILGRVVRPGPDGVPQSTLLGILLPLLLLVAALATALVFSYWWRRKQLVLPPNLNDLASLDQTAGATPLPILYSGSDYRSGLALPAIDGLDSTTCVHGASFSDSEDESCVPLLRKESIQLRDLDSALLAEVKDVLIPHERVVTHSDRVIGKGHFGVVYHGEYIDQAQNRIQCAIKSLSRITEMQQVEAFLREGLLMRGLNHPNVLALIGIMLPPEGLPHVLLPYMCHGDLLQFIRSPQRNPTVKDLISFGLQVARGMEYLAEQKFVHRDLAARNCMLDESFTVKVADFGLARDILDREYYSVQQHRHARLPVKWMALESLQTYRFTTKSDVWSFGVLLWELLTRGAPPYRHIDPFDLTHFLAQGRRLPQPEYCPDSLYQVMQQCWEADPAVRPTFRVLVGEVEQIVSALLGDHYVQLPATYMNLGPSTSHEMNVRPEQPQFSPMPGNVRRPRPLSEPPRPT
Chain of protein kinases of the Z-LYTE panel (Homo sapiens, UniProt P08581) (P08581 25-1390): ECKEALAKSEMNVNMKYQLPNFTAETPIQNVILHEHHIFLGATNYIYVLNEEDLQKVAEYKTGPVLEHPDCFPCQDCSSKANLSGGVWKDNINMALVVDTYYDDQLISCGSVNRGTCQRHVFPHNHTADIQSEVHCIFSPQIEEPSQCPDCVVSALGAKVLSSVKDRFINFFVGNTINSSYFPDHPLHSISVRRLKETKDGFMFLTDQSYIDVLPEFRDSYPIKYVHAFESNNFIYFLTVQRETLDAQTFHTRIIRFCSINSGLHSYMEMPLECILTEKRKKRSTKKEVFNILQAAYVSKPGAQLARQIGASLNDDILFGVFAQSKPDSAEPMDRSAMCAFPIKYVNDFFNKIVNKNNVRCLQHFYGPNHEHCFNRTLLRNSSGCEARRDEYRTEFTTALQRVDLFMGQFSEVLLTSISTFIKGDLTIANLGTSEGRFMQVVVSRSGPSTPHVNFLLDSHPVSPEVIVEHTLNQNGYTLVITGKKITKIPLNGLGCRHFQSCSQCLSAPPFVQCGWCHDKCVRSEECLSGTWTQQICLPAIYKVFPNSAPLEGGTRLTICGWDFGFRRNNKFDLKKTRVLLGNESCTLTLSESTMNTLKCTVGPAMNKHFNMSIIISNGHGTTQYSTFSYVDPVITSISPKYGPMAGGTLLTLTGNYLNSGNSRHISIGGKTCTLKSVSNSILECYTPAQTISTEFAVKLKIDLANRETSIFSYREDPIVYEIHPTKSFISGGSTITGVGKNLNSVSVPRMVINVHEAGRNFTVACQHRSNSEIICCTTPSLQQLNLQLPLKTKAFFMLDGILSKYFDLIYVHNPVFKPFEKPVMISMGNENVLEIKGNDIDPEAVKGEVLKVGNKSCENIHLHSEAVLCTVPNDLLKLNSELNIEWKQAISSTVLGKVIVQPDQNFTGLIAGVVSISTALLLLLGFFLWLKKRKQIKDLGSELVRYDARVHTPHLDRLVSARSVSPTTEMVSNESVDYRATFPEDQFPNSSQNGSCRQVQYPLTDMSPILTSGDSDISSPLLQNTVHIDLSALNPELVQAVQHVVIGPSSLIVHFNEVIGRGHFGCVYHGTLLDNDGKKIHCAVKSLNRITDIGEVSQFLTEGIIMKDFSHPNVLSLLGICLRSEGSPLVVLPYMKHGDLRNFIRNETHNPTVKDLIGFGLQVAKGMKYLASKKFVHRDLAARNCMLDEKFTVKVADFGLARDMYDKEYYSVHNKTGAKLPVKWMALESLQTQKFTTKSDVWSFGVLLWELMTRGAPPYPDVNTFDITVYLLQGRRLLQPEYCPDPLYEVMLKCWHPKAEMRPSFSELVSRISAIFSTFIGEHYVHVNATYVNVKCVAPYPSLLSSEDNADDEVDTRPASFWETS
Chain of protein kinases of the Z-LYTE panel (Homo sapiens, UniProt P07948) (P07948 whole entry): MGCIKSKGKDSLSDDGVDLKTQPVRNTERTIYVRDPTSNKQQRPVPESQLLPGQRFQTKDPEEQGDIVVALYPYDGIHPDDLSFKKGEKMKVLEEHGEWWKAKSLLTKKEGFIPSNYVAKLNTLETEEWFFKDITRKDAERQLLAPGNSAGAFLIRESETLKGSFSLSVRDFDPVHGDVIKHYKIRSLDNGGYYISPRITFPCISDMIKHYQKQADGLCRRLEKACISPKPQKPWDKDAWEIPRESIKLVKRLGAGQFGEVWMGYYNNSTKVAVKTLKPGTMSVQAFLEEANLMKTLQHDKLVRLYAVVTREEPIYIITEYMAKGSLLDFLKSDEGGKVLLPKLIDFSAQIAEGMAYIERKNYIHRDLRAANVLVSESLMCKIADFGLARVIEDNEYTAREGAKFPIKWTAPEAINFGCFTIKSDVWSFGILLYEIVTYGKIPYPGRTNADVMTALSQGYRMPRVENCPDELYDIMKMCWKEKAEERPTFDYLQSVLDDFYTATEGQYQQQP

With `CCN1CCN(c2ccc(Nc3cc(Nc4cccc5c4N(C(C)=O)CC5)ccn3)cc2)CC1` [Compound 1938] the inhibition at 1 µM ([1]; read-out: % Inhibition Point 1) was 2.86%, the inhibition at 1 µM ([1]; read-out: % Inhibition Point 2) was 3.28% and the inhibition at 1 µM ([1]; read-out: % Inhibition mean) was 3%. It also gave an inhibition at 1 µM ([2]; read-out: % Inhibition Point 1) of 11%, an inhibition at 1 µM ([2]; read-out: % Inhibition Point 2) of 9% and an inhibition at 1 µM ([2]; read-out: % Inhibition mean) of 10%. It also gave an inhibition at 1 µM ([3]; read-out: % Inhibition Point 1) of 10%, an inhibition at 1 µM ([3]; read-out: % Inhibition Point 2) of 6.41% and an inhibition at 1 µM ([3]; read-out: % Inhibition mean) of 8%. For the same molecule, the inhibition at 1 µM ([4]; read-out: % Inhibition Point 1) was 1.74%, the inhibition at 1 µM ([4]; read-out: % Inhibition Point 2) was 1.66% and the inhibition at 1 µM ([4]; read-out: % Inhibition mean) was 1.7%. It also gave an inhibition at 1 µM ([5]; read-out: % Inhibition Point 1) of 8%, an inhibition at 1 µM ([5]; read-out: % Inhibition Point 2) of 29% and an inhibition at 1 µM ([5]; read-out: % Inhibition mean) of 19%. The inhibition at 1 µM ([6]; read-out: % Inhibition Point 1) was 39%, the inhibition at 1 µM ([6]; read-out: % Inhibition Point 2) was 35% and the inhibition at 1 µM ([6]; read-out: % Inhibition mean) was 37%. It also gave an inhibition at 1 µM ([7]; read-out: % Inhibition Point 1) of 27%, an inhibition at 1 µM ([7]; read-out: % Inhibition Point 2) of 30% and an inhibition at 1 µM ([7]; read-out: % Inhibition mean) of 29%. For the same molecule, the inhibition at 1 µM ([8]; read-out: % Inhibition Point 1) was 3%, the inhibition at 1 µM ([8]; read-out: % Inhibition Point 2) was -4.63% and the inhibition at 1 µM ([8]; read-out: % Inhibition mean) was -0.814%. The inhibition at 1 µM ([9]; read-out: % Inhibition Point 1) was 4.32%, the inhibition at 1 µM ([9]; read-out: % Inhibition Point 2) was 3.3% and the inhibition at 1 µM ([9]; read-out: % Inhibition mean) was 4%. It also gave an inhibition at 1 µM ([10]; read-out: % Inhibition Point 1) of 8%, an inhibition at 1 µM ([10]; read-out: % Inhibition Point 2) of 8.5% and an inhibition at 1 µM ([10]; read-out: % Inhibition mean) of 8%. For the same molecule, the inhibition at 1 µM ([11]; read-out: % Inhibition Point 1) was 19%, the inhibition at 1 µM ([11]; read-out: % Inhibition Point 2) was 22% and the inhibition at 1 µM ([11]; read-out: % Inhibition mean) was 21%.
